# Test results reported in patent publication US5302590A, “Compounds useful as dual antagonists of platelet activating factor and leukotriene D4” (Hoffmann-La Roche Inc., priority 1992, dated 1994).
# Where two headings read alike, the source gives them in different places.
# Columns and labels:
# [1] = tested on: platelet activating factor (PAF); assay: PAF Induced Bronchoconstriction Assay; type: in vivo, guinea pig; details: for ED50: Cavia porcellus, Platelet, read-out: PAF-induced bronchoconstriction ID50; for antagonist activity against bronchoconstriction induced by PAF or LTD4: administered IV, statement covers both PAF and LTD4; for PAF-induced bronchoconstriction, percent inhibition: 10 mg/kg
# Experimental: (§1) The relative potency (ID50 values) of test compounds administered by the intravenous and oral route was determined by administering increasing doses of test compound. For determination of the time course of inhibition for various compounds, the time between administration of compound and challenge with LTD was varied. The time course of activity was calculated as the time when inhibition decreased to 40%.
# Male animals (Hartlet Strain, 400-500 g were anesthetized with urethane (2 g/kg, i.p.). Each animals' trachea was cannulated and the guinea pigs were respirated using a Harvard small animal rodent respirator (3.0 cc stroke volume, 40 breaths per min.). Tracheal pressure was recorded from a cannula inserted in the trachea and connected to a Statham pressure transducer.
# The jugular vein was cannulated for administering compounds. Spontaneous breathing was arrested with succinylcholine (1.2 mg/kg, i.v.) administered 2 minutes prior to intravenous injection of platelet activating factor PAF).
# For the intravenous testing, the guinea pig is given a 1-minute pretreatment with propranolol at a dose of 0.1 mg/kg intravenously. The test compound is administered with a 1 minute pretreatment prior to intravenous challenge with PAF. The animal is then challenged with a 1 μg/kg intravenous dose of PAF and the change in tracheal pressure is measured.
# For the oral testing, the procedure includes a 2-hour pretreatment period with the test compound administered through an oral gavage tube. Propranolol or succinylcholine and PAF are administered intravenously, and the change in tracheal pressure measured.
# The change in tracheal pressure is determined by subtracting the steady state baseline achieved after administration of succinylcholine from the peak bronchoconstriction seen after challenge with PAF. The mean is calculated for each test compound and compared to the mean of the control animals to give the percent inhibition of bronchoconstriction. The standard error is calculated as the standard error of the mean.
# (§2) The compounds listed below were evaluated for antagonist activity against bronchoconstriction induced by PAF or LTD4. Comparative data for a known LTD4 antagonist (Compound B) and a known PAF antagonist (Compound A) are also shown.
# (§3) Compounds C, D and E were administered orally at a dose of 10 mg/kg.
# leukotriene D4 (LTD4) = assay: Leukotriene-induced bronchoconstriction in guinea pigs, in vivo leukotriene D4 (LTD) antagonist test; parameters: species or system guinea pig (Hartley strain); details: for ED50: Cavia porcellus, read-out: LTD4-induced bronchoconstriction ID50
# Experimental: Male guinea pigs (Hartley strain Charles River) weighing 300-500 g were anesthetized with urethane (~2 g/kg) intraperitoneally and a polyethylene cannula was inserted into the jugular vein for intravenous drug administration. Tracheal pressure (cm of H2 O) was recorded from a Statham pressure transducer (P 32 AA). Propranolol was administered 5 minutes prior to challenge with LTD. Two minutes later spontaneous breathing was arrested with succinylcholine chloride (1.2 mg/kg) administered intravenously, and the animals were ventilated with a Harvard (Model #680) small animal respirator set at 40 breaths/min and 4.0 cc stroke volume. Control vehicle or test drug was administered through the cannula into the jugular vein 1 minute before the animals were challenged intravenously with a maximum constrictory dose of LTD (25 μg/kg) given intravenously. The change in tracheal pressure was averaged for control and drug-treated animals and percent inhibition was calculated. For determination of oral activity, animals were dosed with test compound or vehicle two hours prior to challenge with LTD (25 μg/kg, i.v.).
# as §1, §2, §3
# [2] = 1 min, iv, 1 minute pretreatment, PAF 1 μg/kg i.v.
# [3] = 1 min, iv, 1 minute before LTD 25 μg/kg i.v.
# [4] = po, 10 mg/kg, two hours prior to LTD 25 μg/kg i.v.
Compound,"ED50 [1, 2] [mg/kg]","ED50 ([1]; po, 2-hour pretreatment) [mg/kg]","LTD4-induced bronchoconstriction ID50 (leukotriene D4 (LTD4); iv, 1 minute before LTD 25 μg/kg i.v.)","LTD4-induced bronchoconstriction ID50 (leukotriene D4 (LTD4); po, two hours prior to LTD 25 μg/kg i.v.)",antagonist activity against bronchoconstriction induced by PAF or LTD4 [1],"PAF-induced bronchoconstriction, percent inhibition ([1]; po, 2-hour pretreatment) [%]",ED50 (leukotriene D4 (LTD4); [3]) [mg/kg],"LTD4-induced bronchoconstriction, percent inhibition (leukotriene D4 (LTD4); [4]) [%]","LTD4-induced bronchoconstriction, percent inhibition (leukotriene D4 (LTD4); iv column, iv dose not given) [%]","PAF-induced bronchoconstriction ID50 ([1]; iv, 1 minute pretreatment, PAF 1 μg/kg i.v.)","PAF-induced bronchoconstriction ID50 ([1]; po, 2-hour pretreatment)","ED50 (leukotriene D4 (LTD4); 2 h, po, two hours prior to LTD 25 μg/kg i.v.) [mg/kg]"
"Cc1nnc2n1-c1sc(C#CCn3c(=O)c4ccccc4c4ccccc43)cc1C(c1ccccc1Cl)=NC2 [Compound A, 5-{3-[4-(2-Chlorophenyl)-9-methyl-6H-thieno[3,2f][1,2,4]triazolo[4,3-a][1,4]diazepin-2-yl]-2-propynyl}phenanthridin-6(5H)-one, reference compound]",0.02,0.12,Not Active,Not Active,–,–,–,–,–,–,–,–
"C=CCNC(=O)c1cc(CCc2cc3c(s2)-n2c(C)nnc2CN=C3c2ccccc2Cl)ccc1CC(=O)Nc1cccc(/C=C/c2nc(C3CCC3)cs2)c1 [Compound D, (E)-4-[2-[4-(2-Chlorophenyl)-9-methyl-6H-thieno-[3,2-f][1,2,4]triazolo[4,3-a][1,4]diazepin-2-yl]ethyl]-N-[3-[2-(4-cyclobutyl-2-thiazolyl)ethenyl]phenyl]-2-[(2-propenylamino)-carbonyl]benzeneacetamide]",0.02,–,–,–,very potent dual acting antagonists,65 ± 1,0.08,44 ± 15,–,–,–,–
"Cc1nnc2n1-c1sc(CCc3ccc(CC(=O)Nc4cccc(/C=C/c5nc(C6CCC6)cs5)c4)c(C(=O)O)c3)cc1C(c1ccccc1Cl)=NC2.O [Compound C, (E)-5-[2-[4-(2-chlorophenyl)-9-methyl-6H-thieno-[3,2-f][1,2,4]triazolo[4,3-a][1,4]diazepin-2-yl]ethyl]-2-[2-[3-[2-(4-cyclobutyl-2-thiazolyl)ethenyl]phenylamino]-2-oxoethyl]-benzoic acid monohydrate]",0.02,–,–,–,very potent dual acting antagonists,37 ± 1,0.01,48 ± 8,–,–,–,–
"CCOC(=O)c1cc(CCc2cc3c(s2)-n2c(C)nnc2CN=C3c2ccccc2Cl)ccc1CC(=O)Nc1cccc(/C=C/c2nc(C3CCC3)cs2)c1 [Compound E, (E)-5-[2-[4-(2-Chlorophenyl)-9-methyl-6H-thieno-[3,2-f][1,2,4]triazolo[4,3-a][1,4]diazepin-2-yl]ethyl]-2-[2-[3-[2-(4-cyclobutyl-2-thiazolyl)ethenyl]phenylamino]-2-oxoethyl]-benzoic acid ethyl ester]",0.02,–,–,–,–,14 ± 9,–,–,46 ± 7,–,–,–
"CCC(CC)(CC(=O)Nc1cccc(/C=C/c2nc(C3CCC3)cs2)c1)C(=O)O [Compound B, (E)-4-[3-[2-(4-Cyclobutyl-2-thiazolyl)ethenyl]phenylamino]2,2-diethyl-4-oxobutanoic acid, reference compound]",–,–,–,–,–,–,0.13,–,–,Not Active,Not Active,0.12
